13 compounds from ChEMBL document CHEMBL1201862, “PubChem BioAssay data set” (2004) can be followed below.

Among the test systems are 786-0; COLO 205; EKVX; K562; LOX IMVI; Malme-3M; NCI-H522; OVCAR-8; SF-295; SF-539; SNB-19; SNB-75; SW-620; UACC-257; SK-OV-3; UACC-62.
Assay in all cases: inhibition of tumour cell growth, NCI panel, 48 h

Molecules are shown by their SMILES.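 1) Cells in 96-well plates. 2) Compound, 48 h, 5 concentrations. 3) Linear interpolation between surrounding doses. 4) Unreached endpoint = highest concentration. GI50 is the concentration that inhibits growth by half.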 The source made the active and inactive calls. Cut-off read from the data, not from the text of the source: active = GI50 up to about 1.1 µM and inactive = higher.

In the case of `CC1=C(C(=O)Nc2ccccc2C)C(c2ccccc2C)C(C(=O)Nc2ccccc2C)=C(C)N1`, the GI50 is 17.6 µM (inactive) in the assay with 786-0; 24.3 µM (inactive) in the assay on COLO 205; 20.7 µM (inactive) with EKVX; 19.8 µM (inactive) in the assay with K562; 15 µM (inactive) with LOX IMVI; 18.2 µM (inactive) in the assay on Malme-3M. Further, the GI50 in the assay with NCI-H522 is 14.8 µM (inactive); in the assay with OVCAR-8, 19.1 µM (inactive); in the assay on SF-295, 20.1 µM (inactive); in the assay on SF-539, > 10 µM (inactive); with SNB-19, 22.6 µM (inactive); with SNB-75, 22.4 µM (inactive). Also, the GI50 with SW-620 was 18.1 µM (inactive); in the assay with UACC-257, 27.5 µM (inactive).
For the compound `C[N+]1=c2c3cccc4cccc(c(=O)n2CCC1)c43`, the GI50 is 35.9 µM (inactive) in the assay with 786-0; 16.2 µM (inactive) in the assay with COLO 205; 24.9 µM (inactive) with EKVX; 9.02 µM (inactive) in the assay on K562; 15.3 µM (inactive) in the assay on LOX IMVI; 18 µM (inactive) in the assay on Malme-3M. In addition, the GI50 was 15.8 µM (inactive) in the assay on NCI-H522; 17.7 µM (inactive) with OVCAR-8; 40.4 µM (inactive) in the assay on SF-295; 30.8 µM (inactive) in the assay on SF-539; 27.5 µM (inactive) in the assay on SK-OV-3; 25.1 µM (inactive) in the assay on SNB-75. Besides, the GI50 in the assay with SW-620 is 25.2 µM (inactive); with UACC-257 it was 17.3 µM (inactive); with UACC-62, 18.7 µM (inactive).
For `O=C(c1ccccc1)C1OC12C(=O)Nc1c(Cl)cc(Cl)cc12` (stereo not drawn), the GI50 in the assay on 786-0 was 16.3 µM (inactive); in the assay on COLO 205, 19.7 µM (inactive); in the assay with EKVX it was 57.8 µM (inactive); in the assay with K562, 15.3 µM (inactive); in the assay on LOX IMVI, 23.4 µM (inactive); in the assay on Malme-3M, > 74.5 µM (inactive). Moreover, the GI50 with NCI-H522 is 17.5 µM (inactive); in the assay on OVCAR-8, 17 µM (inactive); with SF-295, 47.2 µM (inactive); in the assay with SF-539, 45.8 µM (inactive); in the assay on SK-OV-3, > 53 µM (inactive); with SNB-19, 66.2 µM (inactive). For the same compound, the GI50 in the assay on SNB-75 is 7.87 µM (inactive); in the assay with SW-620, 16.1 µM (inactive); with UACC-257 it was > 100 µM (inactive); in the assay with UACC-62, 29.9 µM (inactive).
As to `[O-][Cl+3]([O-])([O-])O.c1ccc(/N=c2\snc(-c3ccccc3)s2)cc1`, the GI50 in the assay on 786-0, in the assay on COLO 205, in the assay with K562, with Malme-3M, in the assay on NCI-H522 and in the assay with OVCAR-8 was > 100 µM (inactive) each time. In addition, the GI50 in the assay on SF-539, in the assay with SK-OV-3, in the assay with SNB-19, with SNB-75, in the assay on SW-620 and with UACC-257 was > 100 µM (inactive) each time. Moreover, in the assay with UACC-62, the GI50 was > 100 µM (inactive).
Turning to `O=C(Cc1nc(-c2ccccc2)cc(=O)n1-c1ccccc1Cl)c1ccncc1`, the GI50 in the assay with 786-0, with COLO 205, in the assay on EKVX, in the assay on K562, in the assay with LOX IMVI and in the assay on Malme-3M was > 100 µM (inactive) each time. The GI50 in the assay with NCI-H522, in the assay with OVCAR-8, with SF-295, in the assay on SF-539, in the assay on SK-OV-3 and with SNB-19 was > 100 µM (inactive) in each case. In addition, the GI50 with SNB-75 was 25.2 µM (inactive); in the assay on SW-620, > 100 µM (inactive); in the assay on UACC-257, > 100 µM (inactive); in the assay with UACC-62, > 100 µM (inactive).
As for `COC(=O)CCC1=NOC(CC2CC(CCC(=O)OC)=NO2)C1` (stereo not drawn), the GI50 in the assay with 786-0, in the assay on COLO 205, in the assay with EKVX, in the assay on K562, in the assay on LOX IMVI and in the assay with Malme-3M was > 100 µM (inactive) each time. Further, the GI50 in the assay on NCI-H522, in the assay on OVCAR-8, in the assay with SF-295, with SF-539, in the assay with SK-OV-3 and in the assay with SNB-19 was > 100 µM (inactive) throughout. In addition, the GI50 in the assay on SNB-75, with SW-620, in the assay on UACC-257 and in the assay on UACC-62 was > 100 µM (inactive) each time.
With `COC(=O)c1c(O)ccc(O)c1C(C(C)=O)C(C)=O`, the GI50 with 786-0, with COLO 205, with EKVX, in the assay on K562, in the assay with LOX IMVI and in the assay on Malme-3M was > 100 µM (inactive) in each case. In addition, the GI50 in the assay on NCI-H522 is 45.9 µM (inactive); with OVCAR-8, > 100 µM (inactive); in the assay on SF-295 it was > 100 µM (inactive); in the assay on SF-539, > 100 µM (inactive); in the assay on SK-OV-3, > 100 µM (inactive); in the assay with SNB-19, > 100 µM (inactive). Further, the GI50 with SNB-75 was > 100 µM (inactive); with SW-620 it was > 100 µM (inactive); in the assay with UACC-257, > 100 µM (inactive); with UACC-62, 96.6 µM (inactive).
Turning to `CCOC(=O)c1[nH]c(CN(C)Cc2[nH]c(C(=O)OCC)c(C)c2C(=O)OCc2ccccc2)c(C(=O)OCc2ccccc2)c1C`, the GI50 with 786-0 was 11.2 µM (inactive); in the assay on COLO 205 it was 9.08 µM (inactive); in the assay with EKVX, 12.9 µM (inactive); in the assay with K562 it was 6.17 µM (inactive); with LOX IMVI, 4.75 µM (inactive); in the assay with Malme-3M, 40.3 µM (inactive). Further, the GI50 with NCI-H522 is 6.87 µM (inactive); in the assay with OVCAR-8, 24 µM (inactive); in the assay with SF-295 it was 19.3 µM (inactive); in the assay on SF-539, 8.47 µM (inactive); in the assay with SNB-19 it was 12.9 µM (inactive); with SNB-75 it was 3.3 µM (inactive). For the same compound, the GI50 in the assay on SW-620 is 12.7 µM (inactive); with UACC-257 it was 21.4 µM (inactive); in the assay with UACC-62, 20.4 µM (inactive).
Turning to `CNC1=Nc2ccc(Cl)cc2C(c2ccccc2)=NN1C`, the GI50 in the assay with 786-0 is 54.7 µM (inactive); in the assay with COLO 205 it was > 100 µM (inactive); in the assay on EKVX, > 100 µM (inactive); with K562 it was 51.2 µM (inactive); in the assay on LOX IMVI it was 60.4 µM (inactive); in the assay on Malme-3M it was 42.9 µM (inactive). For the same compound, the GI50 in the assay on NCI-H522 was > 100 µM (inactive); in the assay with OVCAR-8, > 100 µM (inactive); in the assay on SF-295, 84.7 µM (inactive); in the assay on SF-539, > 100 µM (inactive); in the assay with SNB-19, > 100 µM (inactive); in the assay on SNB-75, 23.4 µM (inactive). For the same compound, the GI50 with SW-620 was > 100 µM (inactive); in the assay with UACC-257, 83 µM (inactive); with UACC-62, > 100 µM (inactive).
With `COC(=O)C1C(C(=O)OC)C2C(=O)C3C(C(=O)OC)C(C(=O)OC)C3C(=O)C12` (stereo not drawn), the GI50 in the assay on 786-0, in the assay on COLO 205, with EKVX, with K562, with LOX IMVI and in the assay with Malme-3M was > 100 µM (inactive) throughout. The GI50 with NCI-H522, in the assay with OVCAR-8, in the assay with SF-295, with SF-539, with SK-OV-3 and with SNB-19 was > 100 µM (inactive) throughout. For the same compound, the GI50 in the assay with SW-620 and in the assay with UACC-257 was > 100 µM (inactive) in each case.
For the compound `CN/C(=N/C#N)NCc1ccccc1`, the GI50 in the assay on 786-0 is > 100 µM (inactive); in the assay with COLO 205 it was > 100 µM (inactive); in the assay on EKVX, 0.0512 µM (active); in the assay on LOX IMVI it was > 100 µM (inactive); in the assay on Malme-3M, > 100 µM (inactive); with NCI-H522 it was > 100 µM (inactive). The GI50 in the assay on OVCAR-8, with SF-295, in the assay with SF-539, in the assay on SK-OV-3, in the assay with SNB-19 and in the assay on SNB-75 was > 100 µM (inactive) throughout. For the same compound, the GI50 in the assay on SW-620 and in the assay with UACC-257 was > 100 µM (inactive) in each case.
For the compound `Cc1ccc(S(=O)(=O)Nc2cccc(C)c2C)cc1`, the GI50 with 786-0 is > 100 µM (inactive); in the assay on COLO 205 it was 59.7 µM (inactive); with EKVX it was 73.5 µM (inactive); in the assay on K562 it was 36.6 µM (inactive); in the assay on LOX IMVI, 62.5 µM (inactive); with Malme-3M it was 96.8 µM (inactive). Besides, the GI50 in the assay with OVCAR-8 is 72.4 µM (inactive); with SF-295, 33.7 µM (inactive); in the assay on SF-539, > 100 µM (inactive); with SK-OV-3, 56.9 µM (inactive); in the assay on SNB-19, > 100 µM (inactive); in the assay with SNB-75, 22.5 µM (inactive). Further, the figures for the GI50 in the assay on SW-620, in the assay on UACC-257 and with UACC-62 were 86.7 µM (inactive), 30.8 µM (inactive) and 66.1 µM (inactive), respectively.
For `Cc1[nH]c2ccccc2c1C(=O)CC1(O)C(=O)Nc2c(Cl)cc(Cl)cc21` (stereo not drawn), the GI50 is 26.8 µM (inactive) in the assay with 786-0; 30.1 µM (inactive) with COLO 205; 20.9 µM (inactive) in the assay on K562; 27 µM (inactive) with LOX IMVI; 18.9 µM (inactive) with Malme-3M; 16.9 µM (inactive) with NCI-H522. Further, the GI50 is 24.3 µM (inactive) in the assay on OVCAR-8; 19.5 µM (inactive) in the assay on SF-295; 26.4 µM (inactive) in the assay on SF-539; 72.3 µM (inactive) in the assay with SK-OV-3; 41.3 µM (inactive) in the assay on SNB-19; 27.9 µM (inactive) in the assay with SNB-75. The GI50 in the assay on SW-620 was 22.2 µM (inactive); in the assay with UACC-257 it was 17.2 µM (inactive).
